Experimental data: patent publication EP0382411B1, “Delivery of cytotoxic agents” (ELI LILLY AND COMPANY, priority 1989, dated 1990)
Converted amounts (≈) assume the structure as drawn. “And” between values parts separate entries of the source, which are not always exact repeats. Equal entries are not always repeated.

Legend:
[1] = test system: male Fischer 344 rats; assay: Rat hematology protocol (white blood cell determination); assay type: in vivo; conditions: for WBC's, Day 0, Mean: group mean of 5 rats; for WBC's, Day 0, Mean / WBC's, Day 0: pre-bleed before i.v. injection of 1 mg/kg; for WBC's, Day 3, Mean / WBC's, Day 7, Mean: group mean; for WBC's, Day 7, Mean / WBC's, Day 7: day 7 after 1 mg/kg i.v.; for WBC's, Day 3 / WBC's, Day 7 / WBC's, Day 0: individual rat; for WBC's, Day 0: 1 mg/kg
Description: The purpose of the following procedure was to compare the toxicity of the Substrate-Cytotoxic Agent to the toxicity of Cytotoxic Agent alone. • 1. Day 0: 25 male Fischer 344 rats (∼100g) are pre-bled (eyebleed) and injected i.v. as follows: • Group A: 5 rats + vehicle control: 0.5 ml 10 mM HEPES, 150 NaCl, pH 7.1 buffer containing 10% ethanol. • Group B: 5 rats + 1 mg/kg 4 desacetylvinblastine-3-carboxhydrazide (DAVLBHYD). Dissolve 1 mg DAVLBHYD in 0.5 ml absolute ethanol and add 4.5 ml HEPES-NaCl buffer. Inject each rat with 0.5 ml. • Group C: 5 rats + 1 mg/kg ("LY262758") (7-β-2-(phenoxyacetamido)-3-(((desacetylvinblastine)aminocarboxy)methylene)-3-cephem-1-β-sulfoxide-4-carboxybiacid, trifluoroacetic acid salt) (vinca content), (58% vinca). Dissolve 2 mg as above and inject 0.5 ml. • Group D: 5 rats + 1mg/kg ("LY266494"), (7-β-(2-(thien-2-yl)acetamido-3-(((desacetylvinblastinehydrazido)carbonyloxy)methylene)-3-cephem-4-carboxylic acid, hydrochloride salt (55.8% vinca). Dissolve 2 mg and inject 0.5 ml. • Group E: 5 rats + 1 mg/kg ("LY266070") 7-β-(2-(thien-2-yl)acetamido-3-(((desacetylvinblastinehydrazido)carbonyloxy)methylene)-3-cephem-1-β-sulfoxide-4-carboxylic acid, trifluoroacetic acid salt. Dissovle 2 mg and inject 0.5 ml. All animals were indentifed by ear punch and were bled on days 3 and 7 post treatment for white blood cell (WBC) determination. The raw data are on the following page. […] The WBC values of the groups were indistinguishable at day 7 (and lower than the pre-bleed which may have been due to using a different instrument for the WBC determination).

[2] = test system: CEA - bearing LS174T tumor cells; assay: In vitro cytotoxicity determination (3H-leucine uptake); assay type: cell-based
Description: Target cells (antigen positive or antigen negative) are resuspended in 75% leucine deficient EBSS-MEM (GIBCO, Grand Island, NY) + 10% dialyzed fetal bovine serum (FBS) + gentamicin (GIBCO) at 200,000 cells/ml. Aliquots of this cell suspension, 0.2 ml, are seeded into 96 well plates and incubated overnight at 37°C, 5% CO₂. To the supernatants is added the antibody-enzyme conjugate to a final concentration of 25 µg/ml (unconjugated enzyme, unconjugated antibody, no treatment). The supernatants are removed after 1 hr incubation, and the cells rinsed once with media. The media is then replaced with the same media, but containing a Substrate-Cytotoxic Agent at concentrations between 0.001 and 10 µg/ml. The cells are incubated with the Substrate-Cytotoxic Agent compound for a period of time ranging from 3 to 48 h at 37°C, 5% CO₂. Media containing 4 µCi of ³H-leucine are added per well. The cells are incubated 24 hr with the labeled leucine, then harvested. Uptake of labeled leucine is determined by liquid scintillation counting. (All Samples are run in triplicate.) Results are reported as the Substrate-Cytotoxic Agent concentration at which leucine incorporation is reduced to 50% of the control value (ID₅₀).
The rest of the experiment was carried using the above standard procedure.

[3] = target: P-99 E. cloacae beta-lactamase Enzyme (Enterobacter cloacae, UniProt P05364); assay: Release of substituents from the 3'-methylene group of cephalosporins on treatment with beta-lactamase; assay type: biochemical
Chain of P-99 E. cloacae beta-lactamase Enzyme (P05364 21-381): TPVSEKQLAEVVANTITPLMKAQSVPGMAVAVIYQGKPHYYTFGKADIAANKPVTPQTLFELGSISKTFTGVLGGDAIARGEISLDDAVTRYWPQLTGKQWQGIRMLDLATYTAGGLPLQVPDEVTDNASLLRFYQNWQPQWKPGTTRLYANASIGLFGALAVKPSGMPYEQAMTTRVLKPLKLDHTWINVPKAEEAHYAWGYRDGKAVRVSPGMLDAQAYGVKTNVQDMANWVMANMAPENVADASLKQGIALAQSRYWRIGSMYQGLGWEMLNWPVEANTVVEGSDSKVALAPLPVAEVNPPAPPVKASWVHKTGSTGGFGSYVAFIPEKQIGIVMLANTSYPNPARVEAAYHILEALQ
Description: (If the detection method is not instantaneous, the enzyme can be stopped at the desired time by addition of an inhibitor such as cloxacillin (Sigma, St. Louis, Mo.) at its effective concentration: 5 µM for cloxacillin.)
For instance, a model system for the present method employs the expulsion of aminoethanethiol from 7-β-(2-(thien-2-yl)acetamido)-3-((2-aminoethyl-1-sulfide)methylene)-3-cephem-4-carboxylic acid. A typical enzyme assay was performed (following the 264 nm absorbance), but in 50 mM Tris, 100 mM NaCl buffer, pH 8.0. […] Using molar extinction coefficients of 8,540 for the 264 nm absorbance, and 13,600 for the 412 nm absorbance, the rates of the two reactions can be compared (reaction of thiol with DTNB is instantaneous under these conditions).
A stock solution of P-99 E. cloacae beta-lactamase Enzyme was prepared. To the stock solution of the cephalosporin Substrate (90 µl) was added stock beta-lactamase solution (10 µl). The reaction was monitored by HPLC (on a Waters Associates C₁₈ µ Bondapak column) eluted with 25% acetonitrile/ 1% acetic acid in water (monitered at 254 nm absorbance). The retention time for 5-fluorouracil was 1.9 minutes and was 5.3 minutes for the cephalosporin - (5-fluorouracil) compound. Approximately 30 seconds after mixing, a 5 µl aliqout of the reaction mixture was injected into the HPLC. […] Thirty-six minutes after mixing the stock solutions the amount of compound eluting at […] was further diminished, and the amount of compound eluting at 1.9 minutes was correspondingly larger by intergration of the peak areas.

[4] = test system: white blood cell (WBC); assay: Rat hematology protocol (white blood cell determination); assay type: in vivo, male Fischer 344 rats; conditions: day 3 post treatment, 1 mg/kg i.v., compared to all other groups
Description: The purpose of the following procedure was to compare the toxicity of the Substrate-Cytotoxic Agent to the toxicity of Cytotoxic Agent alone. • 1. Day 0: 25 male Fischer 344 rats (∼100g) are pre-bled (eyebleed) and injected i.v. as follows: • Group A: 5 rats + vehicle control: 0.5 ml 10 mM HEPES, 150 NaCl, pH 7.1 buffer containing 10% ethanol. • Group B: 5 rats + 1 mg/kg 4 desacetylvinblastine-3-carboxhydrazide (DAVLBHYD). Dissolve 1 mg DAVLBHYD in 0.5 ml absolute ethanol and add 4.5 ml HEPES-NaCl buffer. Inject each rat with 0.5 ml. • Group C: 5 rats + 1 mg/kg ("LY262758") (7-β-2-(phenoxyacetamido)-3-(((desacetylvinblastine)aminocarboxy)methylene)-3-cephem-1-β-sulfoxide-4-carboxybiacid, trifluoroacetic acid salt) (vinca content), (58% vinca). Dissolve 2 mg as above and inject 0.5 ml. • Group D: 5 rats + 1mg/kg ("LY266494"), (7-β-(2-(thien-2-yl)acetamido-3-(((desacetylvinblastinehydrazido)carbonyloxy)methylene)-3-cephem-4-carboxylic acid, hydrochloride salt (55.8% vinca). Dissolve 2 mg and inject 0.5 ml. • Group E: 5 rats + 1 mg/kg ("LY266070") 7-β-(2-(thien-2-yl)acetamido-3-(((desacetylvinblastinehydrazido)carbonyloxy)methylene)-3-cephem-1-β-sulfoxide-4-carboxylic acid, trifluoroacetic acid salt. Dissovle 2 mg and inject 0.5 ml. All animals were indentifed by ear punch and were bled on days 3 and 7 post treatment for white blood cell (WBC) determination. […]

[5] = day 3 after 1 mg/kg i.v., trifluoroacetic acid salt
[6] = substance alone, no conjugate, treatment time 6 Hours
[7] = substance alone, no conjugate, treatment time 48 Hours

7-β-2-(phenoxyacetamido)-3-(((desacetylvinblastine)aminocarboxy)methylene)-3-cephem-1-β-sulfoxide-4-carboxybiacid, trifluoroacetic acid salt [LY262758]
WBC's, Day 0, Mean [1]: 13.4 x 1000
WBC's, Day 3, Mean ([1]; day 3 after 1 mg/kg i.v.): 14.8 x 1000
WBC's, Day 7, Mean [1]: 11.2 x 1000
WBC's, Day 3 [1, 5]: 13.3 x 1000 and 14.6 x 1000 and 15.0 x 1000 and 16.3 x 1000 and 14.7 x 1000
WBC's, Day 7 ([1]; trifluoroacetic acid salt): 14.0 x 1000 and 13.0 x 1000 and 12.5 x 1000 and 9.0 x 1000 and 7.7 x 1000
WBC's, Day 0 ([1]; trifluoroacetic acid salt): 13.3 x 1000 and 14.3 x 1000 and 9.4 x 1000 and 10.2 x 1000 and 19.7 x 1000

7-β-(2-(thien-2-yl)acetamido)-3-((((1-(desacetylvinblastine)amino)-2-ethylsulfide)methylene)-3-cephem-4-carboxylic acid [COMPOUND] [listing 1 of 2 here]
toxicity to the tumor cells ([2]; LS174T cells first treated with B-L-CEM231 conjugate at 25 µg/ml for 1 hour): dramatically increased
toxicity to the tumor cells ([2]; LS174T cells untreated with conjugate, compared with the Cytotoxic Agent from which it is derived): much less toxic to the tumor cells than the Cytotoxic Agent from which it is derived

7-β-(2-(thien-2-yl)acetamido)-3-((((1-(desacetylvinblastine)amino)-2-ethylsulfide)methylene)-3-cephem-4-carboxylic acid [COMPOUND] [listing 2 of 2 here]
ID50 ([2]; cells first treated with B-L-CEM231 conjugate 25 µg/ml for 1 hour, COMPOUND treatment time 6 Hours): 0.265 µg/mL
ID50 ([2]; cells first treated with B-L-CEM231 conjugate 25 µg/ml for 1 hour, COMPOUND treatment time 48 Hours): <0.001 µg/mL
ID50 [2, 6]: .154 µg/mL
ID50 [2, 7]: <0.001 µg/mL

NCCSCC1=C(C(=O)O)N2C(=O)[C@@H](NC(=O)Cc3cccs3)[C@H]2SC1 [7-β-(2-(thien-2-yl)acetamido)-3-((2-aminoethyl-1-sulfide)methylene)-3-cephem-4-carboxylic acid, reference compound]
release of thiol ([3]; 50 mM Tris, 100 mM NaCl, pH 8.0, DTNB, absorbance at 412 nm vs 264 nm): thiol is released as a result of beta-lactamase catalyzed cleavage of the cephalosporin, but that the release rate is slower than the catalytic rate

CC[C@]1(O)C[C@@H]2CN(CCc3c([nH]c4ccccc34)[C@@](C(=O)OC)(c3cc4c(cc3OC)N(C)[C@H]3[C@@](O)(C(=O)NN)[C@H](O)[C@]5(CC)C=CCN6CC[C@]43[C@@H]65)C2)C1 [DAVLB-Hyd, 4 desacetylvinblastine-3-carboxhydrazide, reference compound]
WBC suppression ([1]; day 3 after 1 mg/kg i.v., compared to all other groups): significant WBC suppression
WBC's, Day 0, Mean [1]: 13.8 x 1000
WBC's, Day 3, Mean ([1]; day 3 after 1 mg/kg i.v.): 7.4 x 1000
WBC's, Day 7, Mean [1]: 9.2 x 1000
WBC's, Day 3 ([1]; day 3 after 1 mg/kg i.v.): 4.4 x 1000 and 9.0 x 1000 and 5.4 x 1000 and 10.6 x 1000
WBC's, Day 7 [1]: 5.0 x 1000 and 2.8 x 1000 and 19.8 x 1000
WBC's, Day 0 [1]: 17.4 x 1000 and 10.9 x 1000 and 10.2 x 1000 and 12.7 x 1000 and 17.6 x 1000

CC[C@]1(O)C[C@@H]2CN(CCc3c([nH]c4ccccc34)[C@@](C(=O)OC)(c3cc4c(cc3OC)N(C)[C@H]3[C@@](O)(C(=O)NN)[C@H](O)[C@]5(CC)C=CCN6CC[C@]43[C@@H]65)C2)C1 [DAVLBHYD, 4 desacetylvinblastine-3-carboxhydrazide]
white blood cell (WBC) determination [4]: significant WBC suppression

CCC1(O)CC2CN(CCc3c([nH]c4ccccc34)C(C(=O)OC)(c3cc4c(cc3OC)N(C)C3C(O)(C(=O)NCCS)C(O)C5(CC)C=CCN6CCC43C65)C2)C1 (stereo not shown) [Desacetylvinblastine aminoethanethiol, reference compound]
ID50 [2, 6]: 0.26 µg/mL (≈ 0.319 µM)
ID50 [2, 7]: <0.001 µg/mL

CC[C@]1(O)C[C@H]2CN(CCc3c([nH]c4ccccc34)[C@@](C(=O)OC)(c3cc4c(cc3OC)N(C)[C@H]3[C@@](O)(C(=O)NNC(=O)OCC5=C(C(=O)O)N6C(=O)[C@@H](NC(=O)Cc7cccs7)[C@H]6[S+]([O-])C5)[C@H](O)[C@]5(CC)C=CCN6CC[C@]43[C@@H]65)C2)C1.O=C(O)C(F)(F)F (stereo partly shown) [LY266070]
WBC's, Day 0, Mean [1]: 13.0 x 1000
WBC's, Day 3, Mean ([1]; day 3 after 1 mg/kg i.v.): 13.9 x 1000
WBC's, Day 7, Mean [1]: 9.6 x 1000
WBC's, Day 3 [1, 5]: 15.9 x 1000 and 12.8 x 1000 and 15.1 x 1000 and 14.5 x 1000 and 11.3 x 1000
WBC's, Day 7 ([1]; trifluoroacetic acid salt): 7.0 x 1000 and 14.5 x 1000 and 9.6 x 1000 (2×) and 7.1 x 1000
WBC's, Day 0 ([1]; trifluoroacetic acid salt): 14.1 x 1000 and 15.0 x 1000 and 9.9 x 1000 (2×) and 16.2 x 1000

CCC1(O)CC2CN(CCc3c([nH]c4ccccc34)C(C(=O)OC)(c3cc4c(cc3OC)N(C)C3C(O)(C(=O)NNC(=O)OCC5=C(C(=O)O)N6C(=O)C(NC(=O)Cc7cccs7)C6SC5)C(O)C5(CC)C=CCN6CCC43C65)C2)C1.Cl (stereo not shown) [LY266494]
WBC's, Day 0, Mean [1]: 15.6 x 1000
WBC's, Day 3, Mean ([1]; day 3 after 1 mg/kg i.v.): 15.0 x 1000
WBC's, Day 7, Mean [1]: 12.0 x 1000
WBC's, Day 3 ([1]; day 3 after 1 mg/kg i.v., hydrochloride salt): 19.2 x 1000 and 16.2 x 1000 and 14.3 x 1000 and 13.3 x 1000 and 12.1 x 1000
WBC's, Day 7 ([1]; hydrochloride salt): 8.3 x 1000 and 6.8 x 1000 and 11.4 x 1000 and 13.2 x 1000 and 20.1 x 1000
WBC's, Day 0 ([1]; hydrochloride salt): 15.6 x 1000 and 16.5 x 1000 and 14.3 x 1000 and 16.0 x 1000

O=C(Cc1cccs1)N[C@@H]1C(=O)N2C(C(=O)O)=C(Cn3cc(F)c(=O)[nH]c3=O)CS[C@H]12 [ceph-5-FU, 7-β-(2-(thien-2-yl)acetamido)-3-((N-1(5-fluorouracil)-yl)methylene)-3-cephem-4-carboxylic acid]
expulsion of 5-fluorouracil (HPLC trace) ([3]; approximately 30 seconds after mixing with beta-lactamase): the cephalosporin had been consumed
expulsion of 5-fluorouracil (HPLC trace) ([3]; twenty-one minutes after mixing, 5-fluorouracil elutes at 1.9 minutes): a large amount of compound eluting at 1.9 minutes was observed
